The assay deals with CD73 (Homo sapiens (Human), UniProt P21589). As to the kind of experiment: Biochemical assay: inhibition of CD73 activity (AMP hydrolysis, Malachite Green readout). The note with it: CD73 0.3208 nM, AMP 15 μM, 25 mM Tris-HCl pH 7.4, RT, absorbance 620 nm. The essentials:
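Human CD73 (320 pM final) preincubated 15 min at RT with compounds (10-point ½-log titration from 100 μM, duplicates) in 25 mM Tris-HCl pH 7.4, 5 mM MgCl2, 0.01% Brij-35, 0.01% BSA. 15 μM AMP added, 10 min at RT; released phosphate read by Malachite Green absorbance; IC50 determined.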

Sequence of CD73 (P21589 27-574): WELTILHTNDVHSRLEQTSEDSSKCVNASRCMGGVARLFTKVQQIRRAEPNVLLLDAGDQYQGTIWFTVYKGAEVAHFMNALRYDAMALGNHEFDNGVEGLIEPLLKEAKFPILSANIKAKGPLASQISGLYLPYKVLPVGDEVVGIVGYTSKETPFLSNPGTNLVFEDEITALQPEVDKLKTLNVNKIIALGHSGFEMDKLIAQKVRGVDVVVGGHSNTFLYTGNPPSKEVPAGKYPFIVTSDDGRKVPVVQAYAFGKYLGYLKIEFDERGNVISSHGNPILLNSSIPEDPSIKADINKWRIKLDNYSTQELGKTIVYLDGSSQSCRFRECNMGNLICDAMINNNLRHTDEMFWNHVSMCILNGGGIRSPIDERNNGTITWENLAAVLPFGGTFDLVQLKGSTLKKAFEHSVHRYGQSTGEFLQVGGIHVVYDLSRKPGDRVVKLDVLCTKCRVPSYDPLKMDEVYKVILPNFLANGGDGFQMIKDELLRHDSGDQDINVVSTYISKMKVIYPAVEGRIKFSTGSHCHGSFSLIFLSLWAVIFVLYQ

Take `C[C@H](O)[C@H](OC[C@H]1O[C@@H](n2ncc3c(NC4CCCC4)nc(Cl)nc32)[C@H](O)[C@@H]1O)P(=O)(O)O` [Example 12, ((1R,2S)-1-(((2R,3S,4R,5R)-5-(6-chloro-4-(cyclopentylamino)-1H-pyrazolo[3,4-d]pyrimidin-1-yl)-3,4-dihydroxytetrahydrofuran-2-yl)methoxy)-2-hydroxypropyl)phosphonic acid]: the IC50 was not above 100 nM.

Regarding `COP(=O)(CP(=O)(O)O)OC[C@H]1O[C@@H](n2nnc3c(NC4CCCC4)cc(Cl)nc32)[C@H](O)[C@@H]1O` (stereo partly drawn) [Example 54, (((((2R,3S,4R,5R)-5-(5-chloro-7-(cyclopentylamino)-3H-[1,2,3]triazolo[4,5-b]pyridin-3-yl)-3,4-dihydroxytetrahydrofuran-2-yl)methoxy)(methoxy)phosphoryl)methyl)phosphonic acid], the IC50 was not above 100 nM.

In turn, `O=P(O)(O)C(CO)(CC1COC1)OC[C@H]1O[C@@H](n2ncc3c(NC4CCCC4)nc(Cl)nc32)[C@H](O)[C@@H]1O` (mixture of isomers) [Example 167, rac-(2-(((2R,3S,4R,5R)-5-(6-chloro-4-(cyclopentylamino)-1H-pyrazolo[3,4-d]pyrimidin-1-yl)-3,4-dihydroxytetrahydrofuran-2-yl)methoxy)-1-hydroxy-3-(oxetan-3-yl)propan-2-yl)phosphonic acid] displayed an IC50 not above 100 nM.

Compound `C[C@](CO)(OC[C@H]1O[C@@H](n2ncc3c(NC4CCCC4)nc(OCCO)nc32)[C@H](O)[C@@H]1O)P(=O)(O)O` [Example 147, ((S)-2-(((2R,3S,4R,5R)-5-(4-(cyclopentylamino)-6-(2-hydroxyethoxy)-1H-pyrazolo[3,4-d]pyrimidin-1-yl)-3,4-dihydroxytetrahydrofuran-2-yl)methoxy)-1-hydroxypropan-2-yl)phosphonic acid] yielded an IC50 not above 100 nM.

Take `COCC(OC[C@H]1O[C@@H](n2nnc3c(NC4CCCC4)nc(Cl)nc32)[C@H](O)[C@@H]1O)P(=O)(O)O` (stereo partly drawn) [Example 142, (1-(((2R,3S,4R,5R)-5-(5-chloro-7-(cyclopentylamino)-3H-[1,2,3]triazolo[4,5-d]pyrimidin-3-yl)-3,4-dihydroxytetrahydrofuran-2-yl)methoxy)-2-methoxyethyl)phosphonic acid]: the IC50 is not above 100 nM.

In the case of `C[C@@](CO)(OC[C@H]1O[C@@H](n2ncc3c(N[C@@H]4CCc5ccc(F)cc54)nc(Cl)nc32)[C@H](O)[C@@H]1O)P(=O)(O)O` [Example 99, ((R)-2-(((2R,3S,4R,5R)-5-(6-chloro-4-(((R)-6-fluoro-2,3-dihydro-1H-inden-1-yl)amino)-1H-pyrazolo[3,4-d]pyrimidin-1-yl)-3,4-dihydroxytetrahydrofuran-2-yl)methoxy)-1-hydroxypropan-2-yl)phosphonic acid], the IC50 was not above 100 nM.

As to `CC(O)C(OC[C@H]1O[C@@H](n2ncc3c(NC4CCCC4)nc(Cl)nc32)[C@H](O)[C@@H]1O)P(=O)(O)O` (stereo partly drawn) [Example 42, (1-(((2R,3S,4R,5R)-5-(6-chloro-4-(cyclopentylamino)-1H-pyrazolo[3,4-d]pyrimidin-1-yl)-3,4-dihydroxytetrahydrofuran-2-yl)methoxy)-2-hydroxypropyl)phosphonic acid], the half-maximal inhibitory concentration (IC50) is not above 100 nM.

Consider `O=P(O)(O)C(CO)(Cc1cc(O)no1)OC[C@H]1O[C@@H](n2ncc3c(NC4CCCC4)nc(Cl)nc32)[C@H](O)[C@@H]1O` (mixture of isomers) [Example 195, rac-(2-(((2R,3S,4R,5R)-5-(6-chloro-4-(cyclopentylamino)-1H-pyrazolo[3,4-d]pyrimidin-1-yl)-3,4-dihydroxytetrahydrofuran-2-yl)methoxy)-1-hydroxy-3-(3-hydroxyisoxazol-5-yl)propan-2-yl)phosphonic acid], for which the IC50 was not above 100 nM.

`O=P(O)(O)[C@@H](CO)OC[C@H]1O[C@@H](n2nnc3c(NC4CCCC4)cc(Cl)nc32)[C@H](O)[C@@H]1O` [Example 149, ((S)-1-(((2R,3S,4R,5R)-5-(5-chloro-7-(cyclopentylamino)-3H-[1,2,3]triazolo[4,5-b]pyridin-3-yl)-3,4-dihydroxytetrahydrofuran-2-yl)methoxy)-2-hydroxyethyl)phosphonic acid]: the IC50 is not above 100 nM.

The compound `O=P(O)(O)COC[C@H]1O[C@@H](n2nnc3c(NC4CCC4)cc(Cl)nc32)[C@H](O)[C@@H]1O` [Example 23, ((((2R,3S,4R,5R)-5-(5-chloro-7-(cyclobutylamino)-3H-[1,2,3]triazolo[4,5-b]pyridin-3-yl)-3,4-dihydroxytetrahydrofuran-2-yl)methoxy)methyl)phosphonic acid] showed an IC50 not above 100 nM.

Consider `CC(C)(O)C#Cc1nc(NC2CCCC2)c2cnn([C@@H]3O[C@H](COC(CO)(CO)P(=O)(O)O)[C@@H](O)[C@H]3O)c2n1` (racemic) [Example 224, rac-(2-(((2R,3S,4R,5R)-5-(4-(cyclopentylamino)-6-(3-hydroxy-3-methylbut-1-yn-1-yl)-1H-pyrazolo[3,4-d]pyrimidin-1-yl)-3,4-dihydroxytetrahydrofuran-2-yl)methoxy)-1,3-dihydroxypropan-2-yl)phosphonic acid], for which the IC50 was not above 100 nM.

In turn, `COC[C@@](C)(OC[C@H]1O[C@@H](n2nnc3c(NC4CCCC4)cc(Cl)nc32)[C@H](O)[C@@H]1O)P(=O)(O)O` [Example 143, ((S)-2-(((2R,3S,4R,5R)-5-(5-chloro-7-(cyclopentylamino)-3H-[1,2,3]triazolo[4,5-b]pyridin-3-yl)-3,4-dihydroxytetrahydrofuran-2-yl)methoxy)-1-methoxypropan-2-yl)phosphonic acid] displayed an IC50 not above 100 nM.

`COC[C@](C)(OC[C@H]1O[C@@H](n2nnc3c(NC4CCCC4)cc(Cl)nc32)[C@H](O)[C@@H]1O)P(=O)(O)O` [Example 148, ((R)-2-(((2R,3S,4R,5R)-5-(5-chloro-7-(cyclopentylamino)-3H-[1,2,3]triazolo[4,5-b]pyridin-3-yl)-3,4-dihydroxytetrahydrofuran-2-yl)methoxy)-1-methoxypropan-2-yl)phosphonic acid] displayed an IC50 not above 100 nM.

Consider `O=P(O)(O)C(CO)(Cc1nn[nH]n1)OC[C@H]1O[C@@H](n2ncc3c(NCC4CC4)nc(Cl)nc32)[C@H](O)[C@@H]1O` (mixture of isomers) [Example 184, rac-(2-(((2R,3S,4R,5R)-5-(6-chloro-4-((cyclopropylmethyl)amino)-1H-pyrazolo[3,4-d]pyrimidin-1-yl)-3,4-dihydroxytetrahydrofuran-2-yl)methoxy)-1-hydroxy-3-(2H-tetrazol-5-yl)propan-2-yl)phosphonic acid], for which the IC50 was not above 100 nM.

`CC(CO)(OC[C@H]1O[C@@H](n2nnc3c(N[C@@H]4CCc5ccccc54)nc(Cl)nc32)[C@H](O)[C@@H]1O)P(=O)(O)O` (stereo partly drawn) [Example 78, (2-(((2R,3S,4R,5R)-5-(5-chloro-7-(((R)-2,3-dihydro-1H-inden-1-yl)amino)-3H-[1,2,3]triazolo[4,5-d]pyrimidin-3-yl)-3,4-dihydroxytetrahydrofuran-2-yl)methoxy)-1-hydroxypropan-2-yl)phosphonic acid]: the IC50 was not above 100 nM.

`Cn1nnc(CC(CO)(OC[C@H]2O[C@@H](n3ncc4c(NC5CCCC5)nc(Cl)nc43)[C@H](O)[C@@H]2O)P(=O)(O)O)n1` (stereo partly drawn) [Example 96, (2-(((2R,3S,4R,5R)-5-(6-chloro-4-(cyclopentylamino)-1H-pyrazolo[3,4-d]pyrimidin-1-yl)-3,4-dihydroxytetrahydrofuran-2-yl)methoxy)-1-hydroxy-3-(2-methyl-2H-tetrazol-5-yl)propan-2-yl)phosphonic acid] came in with an IC50 not above 100 nM.

`CC(COCC1CC1)(OC[C@H]1O[C@@H](n2ncc3c(NC4CCCC4)nc(Cl)nc32)[C@H](O)[C@@H]1O)P(=O)(O)O` (stereo partly drawn) [Example 153, (2-(((2R,3S,4R,5R)-5-(6-chloro-4-(cyclopentylamino)-1H-pyrazolo[3,4-d]pyrimidin-1-yl)-3,4-dihydroxytetrahydrofuran-2-yl)methoxy)-1-(cyclopropylmethoxy)propan-2-yl)phosphonic acid] gave an IC50 not above 100 nM.

For the compound `COCC(COC)(OC[C@H]1O[C@@H](n2ncc3c(NC4CCC4)nc(Cl)nc32)[C@H](O)[C@@H]1O)P(=O)(O)O` (racemic) [Example 174, rac-(2-(((2R,3S,4R,5R)-5-(6-chloro-4-(cyclobutylamino)-1H-pyrazolo[3,4-d]pyrimidin-1-yl)-3,4-dihydroxytetrahydrofuran-2-yl)methoxy)-1,3-dimethoxypropan-2-yl)phosphonic acid], the IC50 is not above 100 nM.

Compound `CC(CO)(OC[C@H]1O[C@@H](n2ncc3c(NC4CCC4)nc(Cl)nc32)[C@H](O)[C@@H]1O)P(=O)(O)O` (stereo partly drawn) [Example 130, (2-(((2R,3S,4R,5R)-5-(6-chloro-4-(cyclobutylamino)-1H-pyrazolo[3,4-d]pyrimidin-1-yl)-3,4-dihydroxytetrahydrofuran-2-yl)methoxy)-1-hydroxypropan-2-yl)phosphonic acid] had an IC50 not above 100 nM.

`O=P(O)(O)C(CO)(CO)OC[C@H]1O[C@@H](n2ncc3c(NCC4CC4)nc(CO)nc32)[C@H](O)[C@@H]1O` (racemic) [Example 202, rac-(2-(((2R,3S,4R,5R)-5-(4-((cyclopropylmethyl)amino)-6-(hydroxymethyl)-1H-pyrazolo[3,4-d]pyrimidin-1-yl)-3,4-dihydroxytetrahydrofuran-2-yl)methoxy)-1,3-dihydroxypropan-2-yl)phosphonic acid] registered an IC50 not above 100 nM.

As for `CSCC(C)(OC[C@H]1O[C@@H](n2ncc3c(NC4CCCC4)nc(Cl)nc32)[C@H](O)[C@@H]1O)P(=O)(O)O` (stereo partly drawn) [Example 55, (2-(((2R,3S,4R,5R)-5-(6-Chloro-4-(cyclopentylamino)-1H-pyrazolo[3,4-d]pyrimidin-1-yl)-3,4-dihydroxytetrahydrofuran-2-yl)methoxy)-1-(methylthio)propan-2-yl)phosphonic acid], the IC50 is not above 100 nM.

(Values after patent US11325938B2, “CD73 inhibitors” (ORIC Pharmaceuticals, Inc., priority 2018, dated 2022).)
